From ChEMBL document CHEMBL3045600, “Synthesis and Fungicidal Activities of Phenoxyphenyl Alkoxyiminoacetamide Derivatives” (J Pestic Sci, 1998)

What was measured:
[1] = system: Pyricularia oryzae; assay: Fungicidal activity against Magnaporthe oryzae assessed as rice blast disease control at 2.5 ppm submerged application measured after 7 days; format: functional
[2] = system: Botrytis cinerea; assay: Fungicidal activity against Botryotinia fuckeliana assessed as cucumber gray mold disease control at 125 ppm foliar application 24 hr after inoculation at 22 +/- 2 degC measured after 3 days by curative manner; format: functional
[3] = system: Colletotrichum lagenaria; assay: Fungicidal activity against Colletotrichum lagenaria assessed as inhibition of mycelial growth by agar dilution method; format: functional, organism-based
[4] = system: Botrytis cinerea; assay: Fungicidal activity against Botryotinia fuckeliana assessed as cucumber gray mold disease control at 7.8 ppm foliar application 24 hr after inoculation at 22 +/- 2 degC measured after 3 days by curative manner; format: functional
[5] = system: Athelia rolfsii; assay: Fungicidal activity against Athelia rolfsii assessed as inhibition of mycelial growth by agar dilution method; format: functional, organism-based, Agroathelia rolfsii
[6] = system: Pseudoperonospora cubensis; assay: Fungicidal activity against Pseudoperonospora cubensis assessed as cucumber downy mildew disease control at 31.3 ppm foliar application 24 hr before inoculation on upper surface of leaf by preventive manner; format: functional
[7] = system: Podosphaera fuliginea; assay: Fungicidal activity against Podosphaera fuliginea assessed as cucumber powdery mildew control under greenhouse at 2 ppm foliar application 24 hr after inoculation on upper surface of leaf at 23 +/- 2 degC by curative manner; format: functional
[8] = system: Pseudoperonospora cubensis; assay: Fungicidal activity against Pseudoperonospora cubensis assessed as cucumber downy mildew disease control at 7.8 ppm foliar application 24 hr before inoculation on upper surface of leaf by preventive manner; format: functional
[9] = system: Podosphaera fuliginea; assay: Fungicidal activity against Podosphaera fuliginea assessed as cucumber powdery mildew control under greenhouse at 7.8 ppm foliar application 24 hr after inoculation on upper surface of leaf at 23 +/- 2 degC by curative manner; format: functional
[10] = system: Podosphaera fuliginea; assay: Fungicidal activity against Podosphaera fuliginea assessed as cucumber powdery mildew control under greenhouse at 31.3 ppm foliar application 24 hr before inoculation on upper surface of leaf at 23 +/- 2 degC by preventive manner; format: functional
[11] = system: Thanatephorus cucumeris; assay: Fungicidal activity against Thanatephorus cucumeris assessed as rice sheath blight disease control at 31.3 ppm foliar application for 24 hr before inoculation at 26 +- 2 measured after 5 days by preventive manner; format: functional
[12] = system: Pyricularia oryzae; assay: Fungicidal activity against Magnaporthe oryzae assessed as rice blast disease control at 10 ppm submerged application measured after 7 days; format: functional
[13] = system: Fusarium oxysporum; assay: Fungicidal activity against Fusarium oxysporum assessed as inhibition of mycelial growth by agar dilution method; format: functional, organism-based
[14] = system: Pseudoperonospora cubensis; assay: Fungicidal activity against Pseudoperonospora cubensis assessed as cucumber downy mildew disease control at 7.8 ppm foliar application 24 hr after inoculation on upper surface of leaf by curative manner; format: functional
[15] = system: Alternaria alternata; assay: Fungicidal activity against Alternaria alternata apple pathotype assessed as inhibition of mycelial growth by agar dilution method; format: functional, organism-based
[16] = system: Thanatephorus cucumeris; assay: Fungicidal activity against Thanatephorus cucumeris assessed as rice sheath blight disease control at 125 ppm foliar application for 24 hr before inoculation at 26 +- 2 measured after 5 days by preventive manner; format: functional
[17] = system: Pseudoperonospora cubensis; assay: Fungicidal activity against Pseudoperonospora cubensis assessed as cucumber downy mildew disease control at 125 ppm foliar application 24 hr after inoculation on upper surface of leaf by curative manner; format: functional
[18] = system: Cladosporium herbarum; assay: Fungicidal activity against Cladosporium herbarum assessed as inhibition of mycelial growth by agar dilution method; format: functional, organism-based
[19] = system: Pseudoperonospora cubensis; assay: Fungicidal activity against Pseudoperonospora cubensis assessed as cucumber downy mildew disease control at 2 ppm foliar application 24 hr after inoculation on upper surface of leaf by curative manner; format: functional
[20] = system: Botrytis cinerea; assay: Fungicidal activity against Botryotinia fuckeliana assessed as inhibition of mycelial growth by agar dilution method; format: functional, organism-based
[21] = system: Pyricularia oryzae; assay: Fungicidal activity against Magnaporthe oryzae assessed as rice blast disease control at 0.16 ppm submerged application measured after 7 days; format: functional
[22] = system: Sclerotinia sclerotiorum; assay: Fungicidal activity against Sclerotinia sclerotiorum assessed as inhibition of mycelial growth by agar dilution method; format: functional, organism-based
[23] = system: Pythium aphanidermatum; assay: Fungicidal activity against Pythium aphanidermatum assessed as inhibition of mycelial growth by agar dilution method; format: functional, organism-based
[24] = system: Botrytis cinerea; assay: Fungicidal activity against Botryotinia fuckeliana assessed as cucumber gray mold disease control at 7.8 ppm foliar application 24 hr before inoculation at 22 +/- 2 degC measured after 3 days by preventive manner; format: functional
[25] = system: Pyricularia oryzae; assay: Fungicidal activity against Magnaporthe oryzae assessed as inhibition of mycelial growth by agar dilution method; format: functional, organism-based
[26] = system: Pseudoperonospora cubensis; assay: Fungicidal activity against Pseudoperonospora cubensis assessed as cucumber downy mildew disease control at 125 ppm foliar application 24 hr before inoculation on upper surface of leaf by preventive manner; format: functional
[27] = system: Podosphaera fuliginea; assay: Fungicidal activity against Podosphaera fuliginea assessed as cucumber powdery mildew control under greenhouse at 7.8 ppm foliar application 24 hr before inoculation on upper surface of leaf at 23 +/- 2 degC by preventive manner; format: functional
[28] = system: Colletotrichum gloeosporioides; assay: Fungicidal activity against Glomerella cingulata assessed as inhibition of mycelial growth by agar dilution method; format: functional, organism-based
[29] = system: Pseudoperonospora cubensis; assay: Fungicidal activity against Pseudoperonospora cubensis assessed as cucumber downy mildew disease control at 31.3 ppm foliar application 24 hr after inoculation on upper surface of leaf by curative manner; format: functional
[30] = system: Thanatephorus cucumeris; assay: Fungicidal activity against Thanatephorus cucumeris assessed as rice sheath blight disease control at 7.8 ppm foliar application for 24 hr before inoculation at 26 +- 2 measured after 5 days by preventive manner; format: functional
[31] = system: Podosphaera fuliginea; assay: Fungicidal activity against Podosphaera fuliginea assessed as cucumber powdery mildew control under greenhouse at 125 ppm foliar application 24 hr before inoculation on upper surface of leaf at 23 +/- 2 degC by preventive manner; format: functional
[32] = system: Botrytis cinerea; assay: Fungicidal activity against Botryotinia fuckeliana assessed as cucumber gray mold disease control at 31.3 ppm foliar application 24 hr before inoculation at 22 +/- 2 degC measured after 3 days by preventive manner; format: functional
[33] = system: Botrytis cinerea; assay: Fungicidal activity against Botryotinia fuckeliana assessed as cucumber gray mold disease control at 2 ppm foliar application 24 hr after inoculation at 22 +/- 2 degC measured after 3 days by curative manner; format: functional
[34] = system: Botrytis cinerea; assay: Fungicidal activity against Botryotinia fuckeliana assessed as cucumber gray mold disease control at 125 ppm foliar application 24 hr before inoculation at 22 +/- 2 degC measured after 3 days by preventive manner; format: functional
[35] = system: Pyricularia oryzae; assay: Fungicidal activity against Magnaporthe oryzae assessed as rice blast disease control at 0.63 ppm submerged application measured after 7 days; format: functional
[36] = system: Podosphaera fuliginea; assay: Fungicidal activity against Podosphaera fuliginea assessed as cucumber powdery mildew control under greenhouse at 125 ppm foliar application 24 hr after inoculation on upper surface of leaf at 23 +/- 2 degC by curative manner; format: functional
[37] = system: Botrytis cinerea; assay: Fungicidal activity against Botryotinia fuckeliana assessed as cucumber gray mold disease control at 31.3 ppm foliar application 24 hr after inoculation at 22 +/- 2 degC measured after 3 days by curative manner; format: functional
[38] = system: Podosphaera fuliginea; assay: Fungicidal activity against Podosphaera fuliginea assessed as cucumber powdery mildew control under greenhouse at 31.3 ppm foliar application 24 hr after inoculation on upper surface of leaf at 23 +/- 2 degC by curative manner; format: functional
[39] = system: Podosphaera fuliginea; assay: Fungicidal activity against Podosphaera fuliginea assessed as cucumber powdery mildew control under greenhouse at 2 ppm foliar application 24 hr before inoculation on upper surface of leaf at 23 +/- 2 degC by preventive manner; format: functional
[40] = system: Thanatephorus cucumeris; assay: Fungicidal activity against Thanatephorus cucumeris assessed as rice sheath blight disease control at 2 ppm foliar application for 24 hr before inoculation at 26 +- 2 measured after 5 days by preventive manner; format: functional
[41] = system: Botrytis cinerea; assay: Fungicidal activity against Botryotinia fuckeliana assessed as cucumber gray mold disease control at 2 ppm foliar application 24 hr before inoculation at 22 +/- 2 degC measured after 3 days by preventive manner; format: functional
[42] = system: Pseudoperonospora cubensis; assay: Fungicidal activity against Pseudoperonospora cubensis assessed as cucumber downy mildew disease control at 2 ppm foliar application 24 hr before inoculation on upper surface of leaf by preventive manner; format: functional

SMILES	Activity [2] [%]	EC50 [3] [ppm]	Activity [4] [%]	EC50 [5] [ppm]	Activity [6] [%]	Activity [7] [%]	Activity [8] [%]	Activity [9] [%]	Activity [10] [%]	Activity [11] [%]	EC50 [13] [ppm]	Activity [14] [%]	Activity [16] [%]	Activity [24] [%]	Activity [26] [%]	Activity [27] [%]	Activity [30] [%]	Activity [31] [%]	Activity [32] [%]	Activity [34] [%]	also measured
CNC(=O)/C(=N/OC)c1ccccc1Oc1ccccc1 [METOMINOSTROBIN]	50	4.7	50	2.5	100	50	30	50	100	70	6.2	50	70	73	100	70	50	100	92	95	Activity [1]: 50%; Activity [12]: 50%; EC50 [15]: 20.8 ppm; Activity [17]: 50%; EC50 [18]: 4.5 ppm; Activity [19]: 50%; EC50 [20]: 1.1 ppm; Activity [21]: 50%; EC50 [22]: 2 ppm; EC50 [23]: 2.8 ppm; EC50 [25]: 5.6 ppm; EC50 [28]: 7.2 ppm; Activity [29]: 50%; Activity [33]: 50%; Activity [35]: 50%; Activity [36]: 50%; Activity [37]: 50%; Activity [38]: 50%
CNC(=O)/C(=N/OC)c1ccccc1Oc1ccccc1[N+](=O)[O-]	<50	–	<50	–	<70	<50	<70	<50	<70	<70	–	<50	<70	<70	<70	<70	<70	<70	<70	<70	Activity [39]: <70%; Activity [40]: <70%; Activity [41]: <70%; Activity [17]: <50%; Activity [19]: <50%; Activity [42]: <70%; Activity [29]: <50%; Activity [33]: <50%; Activity [36]: <50%; Activity [37]: <50%; Activity [38]: <50%
CNC(=O)/C(=N\OC)c1ccccc1Oc1ccccc1	–	61.8	–	41.1	0	–	0	–	100	0	58.1	–	50	18	70	40	0	100	36	44	EC50 [15]: > 64 ppm; EC50 [18]: 41.8 ppm; EC50 [20]: 1.7 ppm; EC50 [22]: 11.9 ppm; EC50 [23]: 28.1 ppm; EC50 [25]: 49.1 ppm; EC50 [28]: 16.2 ppm
